Test results reported in US20240166596A1, “SULFAMOYL BENZENE DERIVATIVES AND USES THEREOF” (AphioTx Inc., priority 2021, published 2024).

Columns and labels:
Panx1 channel = molecular target: T1, Panx1 channel (Mus musculus, UniProt Q9JIP4); test: YO-PRO-1 dye uptake assay in BV-2 microglia-like cells (BzATP stimulation); assay type: cell-based; settings: BV-2 cells; pre-treatment; concentration not given
T1 construct: endogenous in cells; host or cells: BV-2 microglia-like cells
Description: After plating into 96 well plates, cell culture media was removed and BV-2 cells were incubated in extracellular solution (ECS) (140 mM NaCl, 4.5 mM KCl, 1.3 mM CaCl2, 10 mM HEPES, and 33 mM glucose; pH7.35, osmolarity 315 mOsm) containing YO-PRO-1 dye (2.5 μM, Invitrogen). After a 5 minute baseline recording, cells were stimulated with 3′-O-(4-benzoyl)benzoyl adenosine 5′-triphosphate (BzATP) (150 μM, Toronto Research Chemicals) and dye-uptake was recorded for 30 minutes. Cell viability was assessed immediately after the 30 minute recording by application of ionomycin (1 μM, Sigma). […] YO-PRO-1 fluorescent emission (491/509) was detected using a FilterMax F5 plate reader (Molecular Devices). Drugs used include (−)-norepinephrine (100 pM-1 μM, Sigma), probenecid (1 mM, Life Technologies), and Compound 1 (10 nM, Derksen et al). Drugs were bath applied in ECS containing YO-PRO-1 dye and incubated at 37° C. for 10 minutes prior to BzATP stimulation. Fluorescent emission at 30 minutes post-BzATP was calculated as an average of the entire imaging field as percent change from baseline, and responses at 30 minutes were averaged over multiple independent experiments. Individual traces of BV-2 YO-PRO-1 dye uptake were taken at 10 minute intervals and represent the average response of all BV-2 cells in the recorded view from a subset of experiments.
BV-2 microglia-like cells were maintained in DMEM (Gibco) containing 5% fetal bovine serum (Gibco) and 1% penicillin-streptomycin (Gibco) with 5% CO2.
The compounds tested were designed to more readily penetrate the blood brain barrier and were therefore predicted to require a lower dose to produce similar effects. Prior to testing the compounds in animals, the compounds were first tested in BV2 microglia-like cells using the YO-PRO-1 Dye Uptake Assay. By using this assay, Panx1 channel activity in response to BzATP stimulation of P2X7, an upstream receptor that causes Panx1 pore formation can be assessed. YO-PRO-1 is a large molecular weight dye that can only enter the cell through large pore ion channels such as Panx1, therefore its uptake correlates with Panx1 channel opening. BzATP stimulation causes a significant increase in YO-PRO-1 dye uptake in cells pre-treated with ECS and vehicle solution (0.1% DMSO) (FIG. 1, B).

[1] = molecular target: T2, rPanx1 (Rattus norvegicus Pannexin-1) expressed in 293T cells (Rattus norvegicus, UniProt P60570); test: Whole-cell patch-clamp of Panx1 currents in transfected 293T cells; assay type: cell-based, Homo sapiens
T2 construct: expressed in transfected cells; host or cells: Human embryonic kidney-293T cells (ATCC), transient Lipofectamine 2000 transfection
Description: To further compare the effects of probenecid, Compounds 1 and 5 on Pannexin-1 channels […] Panx-1 was expressed in embryonic kidney-293T cells (293T) and channel activity was assessed at various doses of each compound.
Rattus norvegicus Pannexin-1 (rPanx1) complementary DNA (cDNA) was cloned between BamHI and SalI sites in a pRK5 expression vector (pRK5-rPanx1). Enhanced green fluorescent protein (EGFP) plasmid (pEGFP-C1) was commercially purchased (addgene).
Human embryonic kidney-293T cells (293T) were purchased from ATCC and routinely maintained in the laboratory. Adherent 293T cells were grown in Dulbecco's modified Eagle's medium (Thermo Fisher) supplemented with 10% fetal bovine serum (Thermo Fisher) and 1% penicillin-streptomycin (10,000 U/mL; Thermo Fisher) at 37° C. in a 5% CO2 humidified growth incubator. 293T cells between the passages 6-20 were used for experiments. For patch-clamp recordings, 293T cells reaching 40-60% confluency on 35 mm culture plates were transiently transfected using Lipofectamine 2000 (Thermo Fisher) 36-48 hours before experiments, using the manufacturer's protocol. 293T cells were transfected with 2.5 μg pRK5-rPanx1 and 0.5 μg pEGFP-C1 cDNAs at a mixed ratio of 5:1 to identify positively transfected cells.
On the day of experiments, transiently transfected 293T cells overexpressing rPanx1 and EGFP cDNAs were seeded onto poly-d-lysine coated glass coverslips at least 2 hours before recordings. […] Data was acquired using Clampex (v.10) software and an Axon Digidata 1550A digitizer (Axon Instruments) at 10 kHz, with currents analyzed offline in Clampfit software (v.10.7). […]
293T cells were voltage clamped at −60 mV in whole-cell configuration and exposed to a 300 ms voltage ramp (−80 to +80 mV) before stepping back to −60 mV to record rPanx1 voltage-sensitive currents. Baseline currents were first measured in extracellular solution before perfusion of drug compounds in incrementally increasing concentrations. […]

C57BL/6J mice [2] = test: Naloxone-precipitated morphine withdrawal, composite withdrawal score; assay type: in vivo; settings: 50 mg/kg i.p., 60 minutes prior to naloxone
Description: Adult male C57BL/6J (7-9 weeks) mice were used. Mice were housed under 12/12 hour light/dark cycles with ad libitum access to food and water. Mice were randomly allocated to different test groups. All experiments were approved by the University of Calgary Animal Care Committee and are in accordance with the guidelines of the Canadian Council on Animal Care.
Morphine sulfate (MS, PCCA) prepared in 0.9% sterile saline solution was injected i.p. into male C57BLJ6J (20-30g) mice. Mice received ascending doses of morphine (i.p.) at 8 hours intervals: day 1, 10mg/kg; day 2, 20 mg/kg; day 3, 30 mg/kg; day 4, 40mg/kg. On day 5, mice received a morning injection of morphine (50 mg/kg). A subset of mice received probenecid (15, 25, and 50 mg/kg i.p., Invitrogen) or Compound 1 (0.1, 0.5 and 1 mg/kg) 1 hour following morphine. Mice then received i.p. naloxone (2 mg/kg, naloxone hydrochloride dihydrate, Sigma) 2 hours following morphine to rapidly induce opioid withdrawal. Control mice received equivalent volumes of 0.9% saline or appropriate vehicle solution (0.1% DMSO in saline) and were challenged with naloxone on day 5. Withdrawal behaviors were then scored for 30 minutes post naloxone injection. Behaviors were scored for occurrence and then scaled for severity at 5-minute intervals. Behaviors that were assigned a standardized score between 0-3 depending on severity were jumping, headshakes, wet-dog shakes, chewing/licking, and teeth chattering. Behaviors that were scored 1 point for presence during a 5-minute interval include piloerection and tremors/twitching. The mice were then weighed following the 30 minutes, and the weight difference was assigned a standardized score dependent on the weight change between 0-3 as well. The scaled and present/absent signs were compiled over the 30 minutes to produce a composite withdrawal score.
All data are presented as the mean±standard error mean (s.e.m), and each circle represents an individual animal or experiment. Tests of statistical difference were performed with GraphPad Prism 6 using either an ordinary one-way ANOVA with posthoc Dunnet test, or a two-way ANOVA with post hoc Sidak test. Sample sizes are consistent with those reported in similar studies and provide sufficient power to detect changes with the appropriate statistical analysis. For all experiments, a criterion a level was set at 0.05.

C57BL/6J mice [3] = settings: background statement; pharmacological blockade of Panx1; cited from earlier work
[4] = background statement; cited from earlier work
C57BL/6J mice [5] = test: Naloxone-precipitated morphine withdrawal, composite withdrawal score; assay type: in vivo; settings: 50 mg/kg, 30 minutes before withdrawal

T1 sequence (Q9JIP4 whole entry): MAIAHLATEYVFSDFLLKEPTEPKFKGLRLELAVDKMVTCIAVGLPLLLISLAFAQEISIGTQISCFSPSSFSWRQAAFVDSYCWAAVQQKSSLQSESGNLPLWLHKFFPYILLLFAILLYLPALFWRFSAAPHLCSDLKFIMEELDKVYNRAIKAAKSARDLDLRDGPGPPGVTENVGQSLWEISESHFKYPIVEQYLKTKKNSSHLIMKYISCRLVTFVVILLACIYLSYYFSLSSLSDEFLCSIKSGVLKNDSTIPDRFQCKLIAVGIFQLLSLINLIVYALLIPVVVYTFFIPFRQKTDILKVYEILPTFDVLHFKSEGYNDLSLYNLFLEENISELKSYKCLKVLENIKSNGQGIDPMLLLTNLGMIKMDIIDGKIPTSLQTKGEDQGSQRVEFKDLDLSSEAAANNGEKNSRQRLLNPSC
T2 sequence (P60570 whole entry): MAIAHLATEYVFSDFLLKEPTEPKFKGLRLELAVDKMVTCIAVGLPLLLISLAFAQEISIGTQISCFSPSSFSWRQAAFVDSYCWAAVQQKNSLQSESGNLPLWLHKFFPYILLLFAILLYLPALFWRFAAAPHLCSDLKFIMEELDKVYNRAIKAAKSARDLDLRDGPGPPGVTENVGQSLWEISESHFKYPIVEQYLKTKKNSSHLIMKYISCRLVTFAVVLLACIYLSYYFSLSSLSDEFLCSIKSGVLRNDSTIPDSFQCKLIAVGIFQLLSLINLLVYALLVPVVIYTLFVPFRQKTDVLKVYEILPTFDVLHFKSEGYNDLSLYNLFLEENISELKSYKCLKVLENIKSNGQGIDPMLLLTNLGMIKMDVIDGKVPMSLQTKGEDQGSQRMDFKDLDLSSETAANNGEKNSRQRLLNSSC

CN(C)S(=O)(=O)c1ccc(C(O)(C(F)(F)F)C(F)(F)F)cc1 [Compound 2, 4-(1,1,1,3,3,3-hexafluoro-2-hydroxypropan-2-yl)-N,N-dimethylbenzenesulfonamide]
Panx1 channel activity (BzATP-stimulated YO-PRO-1 dye uptake) (Panx1 channel): significantly blocked

CCCN(CCC)S(=O)(=O)c1ccc(-c2ccc3[nH]ncc3c2)cc1 [Compound 3, 4-(1H-indazol-5-yl)-N,N-dipropylbenzenesulfonamide]
Panx1 channel activity (BzATP-stimulated YO-PRO-1 dye uptake) (Panx1 channel): significantly blocked

CCCN(CCC)S(=O)(=O)c1ccc(-c2ccnc(N3CCNCC3)c2)cc1 [Compound 4]
Panx1 channel activity (BzATP-stimulated YO-PRO-1 dye uptake) (Panx1 channel): significantly blocked

CCCN(CCC)S(=O)(=O)c1ccc(-c2cn[nH]c2)cc1 [Compound 5]
Panx1 channel activity (BzATP-stimulated YO-PRO-1 dye uptake) (Panx1 channel): significantly blocked
Panx1 inhibitory potency relative to Probenecid (patch-clamp) ([1]; voltage ramp -80 to +80 mV, various doses): more potent

CCCN(CCC)S(=O)(=O)c1ccc(-c2cnc(N(C)C)nc2)cc1 [Compound 6]
Panx1 channel activity (BzATP-stimulated YO-PRO-1 dye uptake) (Panx1 channel): significantly blocked

CCCN(CCC)S(=O)(=O)c1ccc(C(=O)O)cc1 [probenecid, reference compound]
Composite withdrawal score (C57BL/6J mice [2]): significantly reduced withdrawal score
Withdrawal behaviors in mice (C57BL/6J mice [3]): ameliorated withdrawal behaviors
Solubility [4]: poor solubility
Withdrawal behaviors (C57BL/6J mice [5]): not effective
Block of Panx1 (inhibition of transfected current) ([1]; maximum doses): 100%
